Reference: US20050075358A1, “Methods for treating IGF1R-inhibitor induced hyperglycemia” (priority 2003, published 2005)

Key:
[1] = acute OGTT study of combination therapy using Metformin and Inhibitor A in rats; assay type: in vivo
Protocol: FIG. 2: An acute OGTT study to determine the effects of combination therapy using Metformin and Inhibitor A on glucose-lowering was conducted in rats. In order to stabilize glucose levels, food was withdrawn for 1 hr prior to administration of any reagent. Glucose challenge was administered 2 hrs after the administration of Inhibitor A and plasma glucose monitored. Plasma glucose levels increased upon administration of the Inhibitor (200 mpk) to 150 mg/dl prior to glucose challenge and to 250 mg/dl post-glucose challenge.

insulin receptor = biological target: T1, insulin receptor (Rattus norvegicus, UniProt P15127); experiment: acute Oral Glucose Tolerance Test (OGTT) in rats; assay type: in vivo; details: fasted rats, oral single dose 50, 100 and 200 mpk 4 hrs prior to glucose challenge (1 g/kg); glucose at 30, 60, 90, 120 min by glucometer
T1 construct: from tissue; host or cells: whole living rats (in vivo)
Protocol: FIG. 1: The effect of inhibition of the insulin receptor was measured using an Oral Glucose Tolerance Test (OGTT). IGF1R Inhibitor A (4-[2-(3-chloro-phenyl)-2-hydroxy-ethylamino]-3-(4-methyl-6-morpholin-4-yl-1H-benzoimidazol-2-yl)-1H-pyridin-2-one) was tested in an acute OGTT study in rats: Fasted rats were orally dosed with Inhibitor A at 50, 100, and 200 mpk as a single dose for 4 hrs prior to glucose challenge (1 g/kg). Glucose was monitored at 30, 60, 90 and 120 minutes post glucose challenge using a glucometer.

T1 sequence (P15127 764-1383 limits assumed): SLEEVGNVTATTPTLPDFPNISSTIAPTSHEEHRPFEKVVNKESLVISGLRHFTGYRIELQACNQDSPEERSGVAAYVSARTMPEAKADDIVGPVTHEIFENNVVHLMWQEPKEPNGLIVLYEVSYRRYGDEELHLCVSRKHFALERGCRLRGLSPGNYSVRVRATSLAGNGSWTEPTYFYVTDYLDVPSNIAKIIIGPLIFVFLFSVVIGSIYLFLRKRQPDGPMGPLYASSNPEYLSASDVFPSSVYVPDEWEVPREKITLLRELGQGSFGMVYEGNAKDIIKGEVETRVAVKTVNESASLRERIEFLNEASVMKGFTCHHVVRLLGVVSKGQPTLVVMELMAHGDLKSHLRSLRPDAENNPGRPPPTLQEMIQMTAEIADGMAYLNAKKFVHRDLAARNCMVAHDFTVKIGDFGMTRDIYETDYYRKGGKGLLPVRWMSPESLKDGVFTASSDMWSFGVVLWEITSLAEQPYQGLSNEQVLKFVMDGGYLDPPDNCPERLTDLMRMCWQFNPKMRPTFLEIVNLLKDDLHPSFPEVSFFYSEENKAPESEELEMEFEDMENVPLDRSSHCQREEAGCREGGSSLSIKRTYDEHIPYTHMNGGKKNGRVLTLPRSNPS
T1 sequence (P15127 27-759 partner limits assumed): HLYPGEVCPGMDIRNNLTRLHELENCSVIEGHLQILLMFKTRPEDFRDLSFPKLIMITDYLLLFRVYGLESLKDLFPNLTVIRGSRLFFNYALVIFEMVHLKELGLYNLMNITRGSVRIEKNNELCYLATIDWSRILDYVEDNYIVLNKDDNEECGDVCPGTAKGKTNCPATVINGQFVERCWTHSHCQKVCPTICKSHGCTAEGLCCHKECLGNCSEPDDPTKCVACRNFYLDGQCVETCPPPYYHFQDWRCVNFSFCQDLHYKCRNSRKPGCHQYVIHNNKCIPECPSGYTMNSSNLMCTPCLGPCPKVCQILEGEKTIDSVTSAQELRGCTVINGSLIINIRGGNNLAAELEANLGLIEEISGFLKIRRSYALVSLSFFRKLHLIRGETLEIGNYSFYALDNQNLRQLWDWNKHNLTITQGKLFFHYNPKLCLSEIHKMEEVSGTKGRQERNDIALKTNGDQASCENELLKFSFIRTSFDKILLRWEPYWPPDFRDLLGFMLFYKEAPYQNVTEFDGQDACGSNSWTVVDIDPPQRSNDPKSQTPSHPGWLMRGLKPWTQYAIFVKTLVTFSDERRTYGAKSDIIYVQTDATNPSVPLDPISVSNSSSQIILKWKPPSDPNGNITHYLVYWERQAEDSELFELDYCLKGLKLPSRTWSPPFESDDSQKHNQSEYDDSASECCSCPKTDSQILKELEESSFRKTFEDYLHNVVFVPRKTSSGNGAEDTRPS

| SMILES | hyperglycemic effects of Inhibitor A after Metformin pretreatment ([1]; rats pretreated for 1 hr with Metformin 450 mpk, then Inhibitor A 200 mpk) | effect on basal and post-glucose challenge glucose (insulin receptor) | plasma glucose level post-glucose challenge ([1]; rats, Inhibitor 200 mpk, glucose challenge 2 hrs after Inhibitor A) | plasma glucose level prior to glucose challenge ([1]; rats, Inhibitor 200 mpk, prior to glucose challenge) |
| --- | --- | --- | --- | --- |
| CN(C)C(=N)N=C(N)N [Metformin, reference compound] | completely ameliorated | – | – | – |
| Cc1cc(N2CCOCC2)cc2[nH]c(-c3c(NCC(O)c4cccc(Cl)c4)cc[nH]c3=O)nc12 (stereo not shown) [Inhibitor A, 4-[2-(3-chloro-phenyl)-2-hydroxy-ethylamino]-3-(4-methyl-6-morpholin-4-yl-1H-benzoimidazol-2-yl)-1H-pyridin-2-one] | – | more pronounced effect on basal and post-glucose challenge at higher drug concentrations | 250 mg/dL | 150 mg/dL |
